Assay results published in patent publication US4758421A (priority 1985, dated 1988).

Experiments:
CHB235 = assay: Binding constants with monoclonal antibody CHB235 by equilibrium dialysis; parameters: species or system mice; conditions: specificity of antibody for the antibody-inducing antigen
Description: (§1) Monoclonal antibodies against L--benzyl--EDTA--In were prepared in cooperation with Hybritech, Inc., 11085 Toneyana Road, San Diego, Calif. 92121. Briefly, an L--benzyl--EDTA--In isothiocyanate reagent was reacted with keyhole limpet hemocyanin, which was used to immunize mice. Splenocytes derived from the immunized mice were fused with a suitable tumor cell line, using known somatic cell hybridization techniques. Promising clones were grown in mouse ascites fluid, and the antibodies obtained were purified by ion-exchange chromatography. Two antibodies against L--benzyl--EDTA--In, designated CHA255 and CHB235, were selected.
(§2) The binding constants of the two monoclonal antibodies with L--benzyl--EDTA chelates of several different metals were determined by equilibrium dialysis. The measured binding constants were shown in Table II below, with standard deviations indicated in parentheses.
(§3) Table III gives binding constant data from a second binding affinity study, involving different In--EDTA and In--HED3A chelates.

CHA255 = assay: Binding constants with monoclonal antibody CHA255 by equilibrium dialysis; parameters: species or system mice; conditions: specificity of antibody for the antibody-inducing antigen
Description: as §1, §2, §3

[1] = tested on: Chinese hamster ovary (CHO) cells; assay: CHO cell survival after 60 minutes exposure (FIG. 4); assay type: cell-based
Description: Chinese hamster ovary (CHO) cells were cultured in standard cell-culture medium, under log phase growth conditions. Increasing concentrations of either BL--Co--S--FeEDTA or FeEDTA were added to each of two groups of cells. The cells were incubated for 60 minutes at 37° C., and the percent cell survivors was determined conventionally by serial dilution in microtitre plates.

Compound | binding constant greater than for non-antigen metal chelates (CHB235) | binding constant greater than for non-antigen metal chelates (CHA255) | cell toxicity [1]
L--benzyl--EDTA--In [In (III)] | 1 to 4 orders of magnitude | 1 to 4 orders of magnitude | 
O=C([O-])CN(CCN(CC(=O)[O-])CC(=O)[O-])CC(=O)[O-].[Fe+3] [FeEDTA] |  |  | relatively non-toxic
